One assay deals with T1, PDC-88 (Pseudomonas aeruginosa, UniProt P24735, DEL316-317/G27D/G391A/T105A/V205L/V356I).
T1 construct: NdeI 5′-[…]-3ʹ and BamHI 5ʹ-[…]-3ʹ; His tag removed) (N); made in house; host or cells: E. coli BL21-CodonPlus (DE3)-RP, pET24a(+)
Description: Timed ESI-MS of acyl-enzyme formation, PDC-88. It counts as biochemical. The note with it: timed ESI-MS, 1 to 30 min (ATM to 60 min). The protocol: (§1) Timed ESI-MS experiments allow tracking of the reaction over time and determination of product modification, enabling the elucidation of mechanistic detail. Time courses were collected for both PDC-3 and PDC-88 with FEP (Fig. 4), CAZ (Fig. S1), TOL (Fig. S2), and ATM (Fig. S3). Substrate modification (here, loss of the R2 group) was determined based on differences between masses of apo and acyl-enzyme peaks (Fig. S4). […] Based on the differences in mass between the apo enzyme peaks, the acyl-enzyme peaks, and the molecular masses of each substrate, the mass of the adducts was determined and used to predict any portion of the substrate molecule that might be lost during the reaction (Fig. S4). As expected ([26][–][28]), all three cephalosporin antibiotics (FEP, CAZ, and TOL) lost their R2 groups during the reaction, while ATM (the sole monobactam) maintained its initial mass.
(§2) Five micrograms of PDC-3 or PDC-88 was incubated at the indicated molar ratio (1:2 to 1:100 PDC:β-lactam) in a total volume of 20 µL in 1× PBS at pH 7.4 at room temperature for the duration of the indicated time points. Reactions were quenched with the addition of 10 µL acetonitrile and added to 1 mL of 0.1% formic acid in water.
(§3) Data were collected using a Waters Synapt G2-Si quadrupole time-of-flight (Q-TOF) mass spectrometer and Waters Acquity UPLC BEH C18 1.7 µm column (2.1 by 100 mm). MassLynx V4.1 was used to deconvolute protein peaks. The tune settings for each sample were as follows: capillary voltage of 3.5 kV, sampling cone voltage of 35 V, source offset of 35 V, source temperature of 100°C, desolvation temperature of 500°C, cone gas flow rate of 100 L/h, desolvation gas flow rate of 800 L/h, and nebulizer bar at 6.0. Mobile phase A was 0.1% formic acid in water. Mobile phase B was 0.1% formic acid in acetonitrile. The mass accuracy of this system is ±5 Da.

The target of the next assay is T2, PDC-3 (Pseudomonas aeruginosa, UniProt P24735, T105A).
T2 construct: The PDC-3 expression construct was created in a similar manner but starting with a previously described pBC SK(−) vector; made in house; host or cells: E. coli BL21-CodonPlus (DE3)-RP, pET24a(+)
Briefly: Timed ESI-MS of acyl-enzyme formation, PDC-3. It is filed as biochemical. The note with it: timed ESI-MS, 1 to 30 min (ATM to 60 min). How it is done:
as §1, §2, §3

The structures appear in SMILES notation.

For `CO/N=C(\C(=O)N[C@@H]1C(=O)N2C(C(=O)[O-])=C(C[N+]3(C)CCCC3)CS[C@H]12)c1csc(N)n1` [FEP, cefepime], the “acyl-enzyme complex formation and deacylation” value was “formed an acyl-enzyme complex with FEP, followed by relatively quick deacylation” at PDC-88 and “did not form an acyl-enzyme complex” at PDC-3.

The values above are taken from publication PMC12217481, “Structure and mechanism of taniborbactam inhibition of the cefepime-hydrolyzing, partial R2-loop deletion Pseudomonas-derived cephalosporinase variant PDC-88” (Antimicrobial Agents and Chemotherapy, 2025).
